Source: EP2951180B1, “2,6,7,8 SUBSTITUTED PURINES AS HDM2 INHIBITORS” (Merck Sharp & Dohme Corp., priority 2013, dated 2014)
pIC50: −log10 of the molar value.

Molecular target: T1, HDM2 (Homo sapiens, UniProt Q00987)
T1 construct: Thioredoxin (N); made in house; host or cells: E. coli strain BL21(DE3)Rosetta
Experiment: FRET assay (HDM2 inhibition; method not described in this part)
Type: binding
Details: Table 1

T1 sequence (Q00987 17-125): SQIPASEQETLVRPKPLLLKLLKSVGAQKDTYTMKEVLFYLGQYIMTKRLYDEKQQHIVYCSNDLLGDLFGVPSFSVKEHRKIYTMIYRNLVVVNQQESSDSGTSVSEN

Question: `CCc1ccc(Cl)c(-c2nc3nc(C(=O)O)nc(N[C@H](C)C4CCC4)c3n2Cc2ccc(C(F)(F)F)cc2)c1` [Example 1.2, (R)-8-(2-chloro-5-ethylphenyl)-6-((1-cyclobutylethyl)amino)-7-(4-(trifluoromethyl)benzyl)-7H-purine-2-carboxylic acid] was tested. Which pIC50 did it give?
Answer: 7.62

Question: With `Cc1ccc2cc(-c3nc4nc(C(=O)O)nc(N[C@H](C)C5CCC5)c4n3Cc3ccc(C(F)(F)F)cc3)ccc2n1` [Example 1.111, 6-{[(1R)-1-cyclobutylethyl]amino}-8-(2-methylquinolin-6-yl)-7-[4-(trifluoromethyl)benzyl]-7H-purine-2-carboxylic acid] as the compound, how does the pIC50 read?
Answer: 6.89

Question: How did the pIC50 turn out when `Cc1c(C(C)C)ccnc1-c1nc2nc(C(=O)O)nc(N[C@H](C)C3CCC3)c2n1Cc1ccc(OC(F)(F)F)c(F)c1` [Example 1.91, 6-{[(1R)-1-cyclobutylethyl]amino}-7-[3-fluoro-4-(trifluoromethoxy)benzyl]-8-[3-methyl-4-(1-methylethyl)pyridin-2-yl]-7H-purine-2-carboxylic acid] was run?
Answer: 7.65

Question: With `Cc1ccc(C)c(-c2nc3nc(C(=O)O)nc(N[C@H](C)C4CCC4)c3n2Cc2ccc(C(F)(F)F)cc2)c1` [Example 1.99, 6-{[(1R)-1-cyclobutylethyl]amino}-8-(2,5-dimethylphenyl)-7-[4-(trifluoromethyl)benzyl]-7H-purine-2-carboxylic acid] as the compound, how does the pIC50 read?
Answer: 7.83

Question: `C[C@@H](Nc1nc(C(=O)O)nc2nc(-c3ccccc3)n(Cc3ccc(C(F)(F)F)cc3)c12)C1CC1` [Example 1.96, 6-{[(1R)-1-cyclopropylethyl]amino} -8-phenyl-7-[4-(trifluoromethyl)benzyl]-7H-purine-2-carboxylic acid] was tested. Which pIC50 did it give?
Answer: 6.43

Question: `CC(C)c1ccc(O)c(-c2nc3nc(C(=O)O)nc(N[C@H](C)C4CCC4)c3n2Cc2ccc(C(F)(F)F)cc2)c1` [Example 1.11, (R)-6-((1-cyclobutylethyl)amino)-8-(2-hydroxy-5-isopropylphenyl)-7-(4-(trifluoromethyl)benzyl)-7H-purine-2-carboxylic acid] was tested. Which pIC50 did it give?
Answer: 7.30

Question: How did the pIC50 turn out when `C[C@@H](Nc1nc(C(=O)O)nc2nc(-c3cc(N(C)C)ccc3OC(F)(F)F)n(Cc3ccc(C(F)(F)F)cc3)c12)C1CCC1` [Example 1.1, (R)-6-((1-cyclobutylethyl)amino)-8-(5-(dimethylamino)-2-(trifluoromethoxy)phenyl)-7-(4-(trifluoromethyl)benzyl)-7H-purine-2-carboxylic acid] was run?
Answer: 7.94

Question: `Cc1cnc(-c2nc3nc(C(=O)O)nc(N[C@H](C)C4CCC4)c3n2Cc2ccc(C(F)(F)F)cc2)cc1C(C)C` [Example 1.86, 6-{[(1R)-1-cyclobutylethyl]amino}-8-[5-methyl-4-(1-methylethyl)pyridin-2-yl]-7-[4-(trifluoromethyl)benzyl]-7H-purine-2-carboxylic acid] was tested. Which pIC50 did it give?
Answer: 7.61

Question: `C[C@@H](Nc1nc(C(=O)O)nc2nc(-c3ccc4c(c3)CCO4)n(Cc3ccc(C(F)(F)F)cc3)c12)C1CCC1` [Example 1.121, 6-{[(1R)-1-cyclobutylethyl]amino}-8-(2,3-dihydro-1-benzofuran-5-yl)-7-[4-(trifluoromethyl)benzyl]-7H-purine-2-carboxylic acid] was tested. Which pIC50 did it give?
Answer: 8.11

Question: How did the pIC50 turn out when `Cc1ccc(-c2nc3nc(C(=O)O)nc(N[C@H](C)C4CCC4)c3n2Cc2ccc(C(F)(F)F)cc2)cc1F` [Example 1.102, 6-{[(1R)-1-cyclobutylethyl]amino}-8-(3-fluoro-4-methylphenyl)-7-[4-(trifluoromethyl)benzyl]-7H-purine-2-carboxylic acid] was run?
Answer: 7.69

Question: `CCc1ccnc(-c2nc3nc(C(=O)O)nc(N[C@H](C)C4CCC4)c3n2Cc2ccc(C(F)(F)F)c(F)c2)c1` [Example 1.79, 6-{[(1R)-1-cyclobutylethyl]amino}-8-(4-ethylpyridin-2-yl)-7-[3-fluoro-4-(trifluoromethyl)benzyl]-7H-purine-2-carboxylic acid] was tested. Which pIC50 did it give?
Answer: 7.99

Question: `C[C@@H](Nc1nc(C(=O)O)nc2nc(-c3cccc(C(N)=O)c3)n(Cc3ccc(C(F)(F)F)cc3)c12)C1CCC1` [Example 1.37, 8-(3-carbamoylphenyl)-6-{[(1R)-1-cyclobutylethyl]amino}-7-[4-(trifluoromethyl)benzyl]-7H-purine-2-carboxylic acid] was tested. Which pIC50 did it give?
Answer: 7.31

Question: How did the pIC50 turn out when `COc1ccc(C)nc1-c1nc2nc(C(=O)O)nc(N[C@H](C)C3CCC3)c2n1Cc1ccc(C(F)(F)F)cc1` [Example 1.23, 6-{[(1R)-1-cyclobutylethyl]amino}-8-(3-methoxy-6-methylpyridin-2-yl)-7-[4-(trifluoromethyl)benzyl]-7H-purine-2-carboxylic acid] was run?
Answer: 7.88

Question: `COc1ccc(-c2nc3nc(C(=O)O)nc(N[C@H](C)C4CCC4)c3n2Cc2ccc(C(F)(F)F)cc2)cc1C` [Example 1.105, 6-{[(1R)-1-cyclobutylethyl]amino}-8-(4-methoxy-3-methylphenyl)-7-[4-(trifluoromethyl)benzyl]-7H-purine-2-carboxylic acid] was tested. Which pIC50 did it give?
Answer: 7.78

Question: With `C[C@@H](Nc1nc(C(=O)O)nc2nc(-c3cc(C(O)c4ccccc4)ccn3)n(Cc3ccc(C(F)(F)F)cc3)c12)C1CCC1` (stereo partly drawn) [Example 1.8, 6-(((R)-1-cyclobutylethyl)amino)-8-(4-(hydroxy(phenyl)methyl)pyridin-2-yl)-7-(4-(trifluoromethyl)benzyl)-7H-purine-2-carboxylic acid] as the compound, how does the pIC50 read?
Answer: 7.70

Same assay, conditions: Table 2

Question: How did the pIC50 turn out when `CCc1ccc(C)cc1-c1nc2nc(C(=O)O)nc(N[C@H](C)C3CCC3)c2n1Cc1ccc(C(F)(F)F)cc1` [Example 2.82, 6-{[(1R)-1-cyclobutylethyl]amino}-8-(2-ethyl-5-methylphenyl)-7-[4-(trifluoromethyl)benzyl]-7H-purine-2-carboxylic acid] was run?
Answer: 7.86

Question: How did the pIC50 turn out when `COc1ncc(-c2nc3nc(C(=O)O)nc(N[C@H](C)C4CCC4)c3n2Cc2ccc(C(F)(F)F)cc2)cc1Cl` [Example 2.46, 8-(5-chloro-6-methoxypyridin-3-yl)-6-{[(1R)-1-cyclobutylethyl]amino}-7-[4-(trifluoromethyl)benzyl]-7H-purine-2-carboxylic acid] was run?
Answer: 7.29

Question: How did the pIC50 turn out when `Cc1cccc(-c2nc3nc(C(=O)O)nc(N[C@H](C)C4CC4)c3n2Cc2ccc(C(F)(F)F)cc2)c1` [Example 2.8, 6-{[(1R)-1-cyclopropylethyl]amino}-8-(3-methylphenyl)-7-[4-(trifluoromethyl)benzyl]-7H-purine-2-carboxylic acid] was run?
Answer: 7.55

Question: With `C[C@@H](Nc1nc(C(=O)O)nc2nc(-c3ccccc3F)n(Cc3ccc(C(F)(F)F)cc3)c12)C1CCC1` [Example 2.47, 6-{[(1R)-1-cyclobutylethyl]amino}-8-(2-fluorophenyl)-7-[4-(trifluoromethyl)benzyl]-7H-purine-2-carboxylic acid] as the compound, how does the pIC50 read?
Answer: 7.59

Question: With `CC(C)c1cccc(-c2nc3nc(C(=O)O)nc(N[C@H](C)C4CCC4)c3n2Cc2ccc(C(F)(F)F)cc2)c1` [Example 2.24, 6-{[(1R)-1-cyclobutylethyl]amino}-8-[3-(1-methylethyl)phenyl]-7-[4-(trifluoromethyl)benzyl]-7H-purine-2-carboxylic acid] as the compound, how does the pIC50 read?
Answer: 7.83

Question: `CCOc1cccc(-c2nc3nc(C(=O)O)nc(N[C@H](C)C4CCC4)c3n2Cc2ccc(C(F)(F)F)cc2)c1` [Example 2.17, 6-{[(1R)-1-cyclobutylethyl]amino}-8-(3-ethoxyphenyl)-7-[4-(trifluoromethyl)benzyl] -7H-purine-2-carboxylic acid] was tested. Which pIC50 did it give?
Answer: 7.40

Question: `Cc1cccc(-c2nc3nc(C(=O)O)nc(N[C@H](C)C4CC4)c3n2Cc2ccc(Cl)cc2)c1` [Example 2.6, 7-(4-chlorobenzyl)-6-{[(1R)-1-cyclopropylethyl]amino}-8-(3-methylphenyl)-7H-purine-2-carboxylic acid] was tested. Which pIC50 did it give?
Answer: 6.68

Same assay, conditions: Table 3

Question: How did the pIC50 turn out when `C[C@@H](Nc1nc(C(=O)O)nc2nc(-c3nccn3C)n(Cc3ccc(C(F)(F)F)cc3)c12)C1CCC1` [Example 3.1, (R)-6-((1-cyclobutylethyl)amino)-8-(1-methyl-1H-imidazol-2-yl)-7-(4-(trifluoromethyl)benzyl)-7H-purine-2-carboxylic acid] was run?
Answer: 6.79

Same assay, conditions: Table 4

Question: With `Cc1ccc(OCCCO)c(-c2nc3nc(C(=O)O)nc(N[C@H](C)C4CCC4)c3n2Cc2ccc(Cl)cc2)c1` [Example 4.6, (R)-7-(4-chlorobenzyl)-6-((1-cyclobutylethyl)amino)-8-(2-(3-hydroxypropoxy)-5-methylphenyl)-7H-purine-2-carboxylic acid] as the compound, how does the pIC50 read?
Answer: 7.47

Question: With `C=CCCOc1ccc(C)cc1-c1nc2nc(C(=O)O)nc(N[C@H](C)C3CC3)c2n1Cc1ccc(Cl)cc1` [Example 4.3, (R)-8-(2-(but-3-en-1-yloxy)-5-methylphenyl)-7-(4-chlorobenzyl)-6-((1-cyclopropylethyl)amino)-7H-purine-2-carboxylic acid] as the compound, how does the pIC50 read?
Answer: 6.98

Same assay, conditions: Table 5

Question: How did the pIC50 turn out when `Cc1cccc(-c2nc3nc(C(=O)O)nc(N[C@H](C)C4CC4)c3n2Cc2ccc(C(C)C)cc2)c1` [Example 5.7, 6-{[(1R)-1-cyclopropylethyl]amino}-7-[4-(1-methylethyl)benzyl]-8-(3-methylphenyl)-7H-purine-2-carboxylic acid] was run?
Answer: 5.45

Question: With `Cc1cccc(-c2nc3nc(C(=O)O)nc(N[C@H](C)C4CCC4)c3n2Cc2ccc(C(F)(F)F)cc2Cl)c1` [Example 5.12, 7-[2-chloro-4-(trifluoromethyl)benzyl]-6-{[(1R)-1-cyclobutylethyl]amino}-8-(3-methylphenyl)-7H-purine-2-carboxylic acid] as the compound, how does the pIC50 read?
Answer: 7.02

Question: `Cc1cccc(-c2nc3nc(C(=O)O)nc(N[C@H](C)C4CCC4)c3n2Cc2ccc(OC(F)F)cc2)c1` [Example 5.13, 6-{[(1R)-1-cyclobutylethyl]amino}-7-[4-(difluoromethoxy)benzyl]-8-(3-methylphenyl)-7H-purine-2-carboxylic acid] was tested. Which pIC50 did it give?
Answer: 6.89

Question: `Cc1cccc(-c2nc3nc(C(=O)O)nc(N[C@@H](C)C4CC4)c3n2C(C)c2ccc(Cl)cc2)c1` (stereo partly drawn) [Example 5.3, 7-(1-(4-chlorophenyl)ethyl)-6-((S)-1-cyclopropylethylamino)-8-(3-methylphenyl)-7H-purine-2-carboxylic acid] was tested. Which pIC50 did it give?
Answer: 6.22

Question: With `Cc1cccc(-c2nc3nc(C(=O)O)nc(N[C@H](C)C4CC4)c3n2Cc2ccc(OC(F)(F)F)cc2)c1` [Example 5.8, 6-{[(1R)-1-cyclopropylethyl]amino}-8-(3-methylphenyl)-7-[4-(trifluoromethoxy)benzyl]-7H-purine-2-carboxylic acid] as the compound, how does the pIC50 read?
Answer: 6.83
